Like-named read-outs stand apart in the source and are kept apart here.

Six molecules from paper PMC4045134, “Discovery of Triterpenoids as Reversible Inhibitors of α/β-hydrolase Domain Containing 12 (ABHD12)” (PLoS ONE, 2014) can be followed below.

Assay type in all cases: biochemical
Assay [1] deals with T1, hABHD12 (Homo sapiens, UniProt Q8N2K0).
T1 construct: expressed in transfected cells; host or cells: HEK293 (transient)
T1 sequence (Q8N2K0 1-398): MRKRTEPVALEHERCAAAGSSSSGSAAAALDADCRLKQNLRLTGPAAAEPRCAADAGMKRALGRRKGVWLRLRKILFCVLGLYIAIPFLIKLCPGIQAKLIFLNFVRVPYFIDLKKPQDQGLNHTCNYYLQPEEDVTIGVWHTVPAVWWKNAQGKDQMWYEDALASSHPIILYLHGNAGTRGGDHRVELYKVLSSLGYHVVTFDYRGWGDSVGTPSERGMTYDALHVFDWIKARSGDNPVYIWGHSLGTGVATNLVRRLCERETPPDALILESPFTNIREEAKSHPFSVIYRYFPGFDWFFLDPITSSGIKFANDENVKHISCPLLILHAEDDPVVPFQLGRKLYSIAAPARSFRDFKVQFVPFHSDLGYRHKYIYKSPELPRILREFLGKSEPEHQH
In words: Fluorescent glycerol assay of 1-AG hydrolysis in hABHD12-HEK293 lysates. The settings on record: for Emax: read-out: max inhibition (converted). The procedure:
(§1) Glycerol liberated from 1-AG hydrolysis was determined with a sensitive fluorescent assay using lysates of HEK293 cells with transient overexpression of hABHD12, hABHD6 or hMAGL, essentially as previously described. […] Fluorescence (λex 530; λem 590 nm) was monitored using a Tecan Infinite M200 plate reader (Tecan Group Ltd., Männedorf, Switzerland). Inhibitory activities of selected compounds towards FAAH were determined using membranes of hFAAH overexpressing COS-7 cells, essentially as previously described. The final incubation volume (100 µL) contained 1 µg of protein and the substrate concentration was 20 µM (10 nM of ^3H-anandamide having specific activity of 60 Ci/mmol and concentration of 1 mCi/mL).

Assay [2] addresses T2, hFAAH (Homo sapiens, UniProt O00519).
T2 construct: expressed in transfected cells; host or cells: COS-7
T2 sequence (O00519 1-579): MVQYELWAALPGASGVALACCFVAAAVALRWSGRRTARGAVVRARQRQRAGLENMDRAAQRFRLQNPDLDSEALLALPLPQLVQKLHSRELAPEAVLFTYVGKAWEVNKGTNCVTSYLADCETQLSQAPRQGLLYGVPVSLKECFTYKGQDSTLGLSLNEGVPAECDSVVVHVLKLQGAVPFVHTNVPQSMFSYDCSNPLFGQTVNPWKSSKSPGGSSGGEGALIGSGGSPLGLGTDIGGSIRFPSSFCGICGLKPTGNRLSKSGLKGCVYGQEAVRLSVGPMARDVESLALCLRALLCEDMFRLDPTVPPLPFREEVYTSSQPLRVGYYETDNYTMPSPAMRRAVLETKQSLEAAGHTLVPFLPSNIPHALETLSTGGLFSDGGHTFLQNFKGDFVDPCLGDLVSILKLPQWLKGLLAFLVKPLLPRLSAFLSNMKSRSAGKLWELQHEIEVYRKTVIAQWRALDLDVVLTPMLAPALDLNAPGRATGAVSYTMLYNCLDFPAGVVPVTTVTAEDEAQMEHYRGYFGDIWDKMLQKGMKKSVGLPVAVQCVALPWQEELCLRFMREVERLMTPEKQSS
The experiment in a line: FAAH activity, membranes of hFAAH overexpressing COS-7 cells, 3H-anandamide. The settings on record: read-out: hFAAH Remaining activity % control (mean (range)), n=2. As to the method: as §1

In assay [3] the target is T3, hMAGL (Homo sapiens, UniProt Q99685).
T3 construct: expressed in transfected cells; host or cells: HEK293 (transient)
T3 sequence (Q99685 1-303): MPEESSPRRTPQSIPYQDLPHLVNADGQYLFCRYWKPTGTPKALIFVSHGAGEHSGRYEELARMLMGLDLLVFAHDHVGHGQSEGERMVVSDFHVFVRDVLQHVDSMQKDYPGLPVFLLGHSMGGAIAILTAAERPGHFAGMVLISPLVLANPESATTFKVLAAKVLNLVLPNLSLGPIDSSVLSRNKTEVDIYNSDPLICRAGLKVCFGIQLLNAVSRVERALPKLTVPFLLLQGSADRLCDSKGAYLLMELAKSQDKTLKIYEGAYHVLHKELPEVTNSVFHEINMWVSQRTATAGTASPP
In words: Fluorescent glycerol assay in hMAGL-HEK293 lysates. The settings on record: for remaining activity at 10 µM: read-out: hMAGL Remaining activity % control ± s.e.m (n=3). As to the method:
as §1

Assay [4] deals with T4, hABHD6 (Homo sapiens, UniProt Q9BV23).
T4 construct: expressed in transfected cells; host or cells: HEK293 (transient)
T4 sequence (Q9BV23 1-337): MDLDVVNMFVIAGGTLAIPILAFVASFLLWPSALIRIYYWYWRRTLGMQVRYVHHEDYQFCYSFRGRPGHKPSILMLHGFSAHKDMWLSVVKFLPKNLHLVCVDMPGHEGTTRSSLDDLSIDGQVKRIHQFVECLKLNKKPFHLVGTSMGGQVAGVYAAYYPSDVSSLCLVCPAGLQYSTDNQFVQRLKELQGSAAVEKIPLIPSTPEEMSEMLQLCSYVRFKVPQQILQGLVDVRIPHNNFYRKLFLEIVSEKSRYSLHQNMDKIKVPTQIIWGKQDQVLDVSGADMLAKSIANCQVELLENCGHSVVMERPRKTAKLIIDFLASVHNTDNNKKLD
The experiment in a line: Fluorescent glycerol assay in hABHD6-HEK293 lysates. The settings on record: 10 µM; NI = no inhibition at 10 µM; read-out: hABHD6 Remaining activity % control ± s.e.m (n=3). The procedure: as §1

Assay [5] addresses T5, hCB2R (Homo sapiens, UniProt P34972).
T5 construct: expressed in transfected cells; host or cells: CHO
In words: [35S]GTPγS binding, CB2R agonist activity, hCB2R-CHO cell membranes. The settings on record: 1 µM. In general terms: Binding of GTPγS marks nucleotide exchange on a G protein.

[6] abbreviates: hABHD12-HEK293 lysates, three independent experiments, read-out: -logIC50±s.e.m. (converted).
Setting [7] is: hABHD12-HEK293 lysates, read-out: IC50.

T5 sequence (P34972 whole entry): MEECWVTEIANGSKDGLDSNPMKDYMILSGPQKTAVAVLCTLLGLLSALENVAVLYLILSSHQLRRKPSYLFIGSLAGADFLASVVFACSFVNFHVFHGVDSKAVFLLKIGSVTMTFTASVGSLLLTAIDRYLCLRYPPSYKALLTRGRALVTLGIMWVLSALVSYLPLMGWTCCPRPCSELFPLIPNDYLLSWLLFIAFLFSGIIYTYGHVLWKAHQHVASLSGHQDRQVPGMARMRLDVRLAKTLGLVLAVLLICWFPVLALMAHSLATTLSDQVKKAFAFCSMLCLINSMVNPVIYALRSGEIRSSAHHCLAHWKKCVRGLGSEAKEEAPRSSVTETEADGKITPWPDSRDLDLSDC

In general, remaining activity refers to what remains of the control signal, in per cent. With `C=C(C)[C@@H]1CC[C@]2(C=O)CC[C@]3(C)[C@H](CC[C@@H]4[C@@]5(C)CCC(=O)C(C)(C)[C@@H]5CC[C@]43C)[C@@H]12` [Compound 17], the IC50 in assay [1] (setting [6]) is 4.47 µM; in assay [1] (setting [7]), 4.4 µM. Also, the Emax in assay [1] (hABHD12-HEK293 lysates) is 57%. Moreover, the results for the remaining activity at 10 µM in assay [2], in assay [3] and in assay [4] were 95%, 84.1 ± 4.8% and 93.6 ± 3.8%, respectively.
Consider `C=C(C)[C@@H]1CC[C@]2(C=NO)CC[C@]3(C)[C@H](CC[C@@H]4[C@@]5(C)CC[C@H](O)C(C)(C)[C@@H]5CC[C@]43C)[C@@H]12` [Compound 24], for which, in assay [1] (setting [7]), the IC50 was found to be 6.5 µM. In assay [1] (hABHD12-HEK293 lysates), the Emax was 61%. Further, the remaining activity at 10 µM in assay [2] turned out to be 95%; in assay [3], 86 ± 4.3%; in assay [4], 92.4 ± 3.9%.
Regarding `C=C(C)[C@@H]1CC[C@]2(C(=O)O)CC[C@]3(C)[C@H](CC[C@@H]4[C@@]5(C)CC6OC(C)(C)OC6C(C)(C)[C@@H]5CC[C@]43C)[C@@H]12` (some centres unmarked) [Compound 31], the IC50 in assay [1] (setting [6]) is 7.41 µM; in assay [1] (setting [7]), 7.5 µM. The Emax in assay [1] (hABHD12-HEK293 lysates) was 90%. The remaining activity at 10 µM stood at 91% in assay [2], 82.7 ± 4.1% in assay [3] and 93.2 ± 3% in assay [4].
The term inhibition denotes the drop in the measured response relative to a control, in per cent. Turning to `CC1(C)CC[C@]23CC[C@]4(C)C(CC[C@@H]5[C@@]6(C)Cc7c([nH]c8ccc(F)cc78)C(C)(C)[C@@H]6CC[C@]54C)[C@H]2[C@H]1OC3` (some centres unmarked) [Compound 35], the “hABHD12 inhibitory activity (in words)” value in assay [1] is reported as “total loss of the inhibitory activity”. In addition, the remaining activity at 10 µM in assay [1] (hABHD12-HEK293 lysates, 10 µM, NI = no inhibition, read-out: Remaining activity at 10 µM % ± s.e.m.) was greater than 100%. Moreover, the inhibition at 10 µM in assay [3] (read-out: inhibition of MAGL at 10 µM) was roughly 50%.
`C=C(C)[C@@H]1CC[C@]2(C(=O)O)CC[C@]3(C)[C@H](CC[C@@H]4[C@@]5(C)CCC(=O)NC(C)(C)[C@@H]5CC[C@]43C)[C@@H]12` [Compound 36]: the IC50 in assay [1] (setting [7]) turned out to be 9.1 µM. In addition, the Emax in assay [1] (hABHD12-HEK293 lysates) is 88%. The remaining activity at 10 µM amounted to 88% in assay [2], 54.1 ± 4.7% in assay [3] and 80 ± 4.4% in assay [4].
As for SR144528, the “CB2R agonist activity [35S]GTPγS binding % Basal (Mean (range), n=2)” value in assay [5] is on record as 68 (60-76) % Basal.
